Test systems include RPMI-8226 leukemia; HT29 colon; NCI-H522 lung; MDA-MB-435; EKVX NSCLC; OVCAR-8 ovarian; K-562 leukemia; SF-268 CNS; PC-3 prostate; OVCAR-3 ovarian; SN12C renal; UACC-62 melanoma; NCI/ADR-RES ovarian; SK-MEL-5 melanoma; 786-0 renal; TK-10 renal; SNB-19 CNS; NCI-H460 lung; SF-539 CNS; RXF 393 renal.
Common to all, as to experiment: NCI tumour cell line growth inhibition, 48 h

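Where inhibition never reached the appropriate level, the endpoint shown equals the highest concentration tested. Otherwise, values were interpolated linearly from a five-concentration, 48-hour dose response in 96-well plates. TGI is the concentration that stops growth completely.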

TGI data for 8 molecules are collected here from PubChem BioAssay (NCI).

On to `CCSC1=N/C(=C\c2ccco2)C(Nc2ccc(C)cc2)=N1`, for which the TGI in the assay on RPMI-8226 leukemia, in the assay on HT29 colon, in the assay with NCI-H522 lung, in the assay with MDA-MB-435, in the assay with EKVX NSCLC and in the assay on OVCAR-8 ovarian was above 100 µM in each case. The TGI in the assay with K-562 leukemia, in the assay on SF-268 CNS, in the assay on PC-3 prostate, with OVCAR-3 ovarian, in the assay with SN12C renal and in the assay on UACC-62 melanoma was above 100 µM throughout. In addition, the TGI in the assay on NCI/ADR-RES ovarian, in the assay on SK-MEL-5 melanoma, with 786-0 renal, in the assay with TK-10 renal and in the assay on SNB-19 CNS was above 100 µM throughout.
For the molecule `COc1ccc2[nH]c3c(c2c1)CCc1c(OC)cccc1-3`, the TGI with RPMI-8226 leukemia, in the assay with HT29 colon, in the assay on NCI-H522 lung, in the assay on MDA-MB-435, in the assay with EKVX NSCLC and with OVCAR-8 ovarian was above 100 µM each time. Further, the TGI with K-562 leukemia, in the assay with SF-268 CNS, with PC-3 prostate, with OVCAR-3 ovarian, in the assay on SN12C renal and in the assay on UACC-62 melanoma was above 100 µM in each case. Also, the TGI in the assay with NCI/ADR-RES ovarian, in the assay on SK-MEL-5 melanoma, in the assay on NCI-H460 lung, in the assay with 786-0 renal, with TK-10 renal and in the assay with SNB-19 CNS was above 100 µM in each case.
Consider `Cn1c2ccccc2c2c3c(c4c5ccccc5n(C)c4c21)C(=O)N(Cc1ccccc1)C3=O`, for which the TGI in the assay on RPMI-8226 leukemia, in the assay with HT29 colon, with NCI-H522 lung, in the assay on MDA-MB-435, with EKVX NSCLC and in the assay on OVCAR-8 ovarian was above 100 µM throughout. Further, the TGI in the assay on K-562 leukemia, in the assay on PC-3 prostate, in the assay on SF-539 CNS, in the assay with SN12C renal, in the assay with UACC-62 melanoma and with NCI/ADR-RES ovarian was above 100 µM each time. The TGI in the assay with SK-MEL-5 melanoma, in the assay with NCI-H460 lung, in the assay with 786-0 renal, in the assay with TK-10 renal and in the assay on SNB-19 CNS was above 100 µM in each case.
`Cc1cn(C(CO)OC(CO)CN(O)C2C3CC4CC(C3)CC2C4)c(=O)[nH]c1=O` (stereo not given): the TGI with RPMI-8226 leukemia, with HT29 colon, with MDA-MB-435, in the assay with EKVX NSCLC, in the assay with OVCAR-8 ovarian and in the assay with K-562 leukemia was above 100 µM in each case. Further, the TGI in the assay on SF-268 CNS, in the assay with PC-3 prostate, in the assay on SF-539 CNS, in the assay on SN12C renal, in the assay with UACC-62 melanoma and with SK-MEL-5 melanoma was above 100 µM throughout. Further, the TGI with NCI-H460 lung, in the assay on 786-0 renal, in the assay on TK-10 renal and in the assay on SNB-19 CNS was above 100 µM each time.
On to `CCOC(=O)c1ccc(NCc2ccc3nc(OC)c(OC)nc3c2)cc1`, for which the TGI with HT29 colon, with NCI-H522 lung, in the assay with MDA-MB-435, with EKVX NSCLC, in the assay on OVCAR-8 ovarian and in the assay with K-562 leukemia was above 100 µM throughout. Besides, the TGI with SF-268 CNS, in the assay with PC-3 prostate, in the assay with SF-539 CNS, in the assay with OVCAR-3 ovarian, in the assay on SN12C renal and with UACC-62 melanoma was above 100 µM throughout. Further, the TGI in the assay with NCI/ADR-RES ovarian, with SK-MEL-5 melanoma, with NCI-H460 lung, with 786-0 renal and in the assay on SNB-19 CNS was above 100 µM in each case.
Turning to `O=P(O)(O)c1ccc2c(c1)OCCOCCOCCOCCO2`, the TGI with RPMI-8226 leukemia, in the assay with HT29 colon, in the assay on NCI-H522 lung, in the assay on MDA-MB-435, in the assay with EKVX NSCLC and in the assay on OVCAR-8 ovarian was above 100 µM in each case. Also, the TGI in the assay on K-562 leukemia, in the assay on SF-268 CNS, in the assay with PC-3 prostate, in the assay with SF-539 CNS, in the assay on SN12C renal and in the assay with UACC-62 melanoma was above 100 µM each time. In addition, the TGI with SK-MEL-5 melanoma, in the assay on NCI-H460 lung, with 786-0 renal, in the assay on TK-10 renal and with SNB-19 CNS was above 100 µM each time.
Turning to `COc1ccc(CC2Cc3ccccc3CC(=O)N2)cc1OC` (stereo not given), the TGI with HT29 colon, in the assay on MDA-MB-435, in the assay with EKVX NSCLC, with OVCAR-8 ovarian, in the assay on K-562 leukemia and in the assay with PC-3 prostate was above 100 µM each time. Further, the TGI is above 100 µM in the assay on SF-539 CNS; above 100 µM in the assay on OVCAR-3 ovarian; above 100 µM in the assay on SN12C renal; above 100 µM with UACC-62 melanoma; above 100 µM with NCI/ADR-RES ovarian; 54.1 µM in the assay on SK-MEL-5 melanoma. The TGI with NCI-H460 lung, in the assay with 786-0 renal, in the assay on TK-10 renal and in the assay with SNB-19 CNS was above 100 µM each time.
`CC(C)CC(C#CCCOC(=O)c1ccccc1)OC(=O)c1ccccc1` (stereo not given): the TGI with HT29 colon, with MDA-MB-435, in the assay on EKVX NSCLC, in the assay on OVCAR-8 ovarian, in the assay on K-562 leukemia and in the assay with SF-268 CNS was above 10 µM in each case. For the same molecule, the TGI in the assay with PC-3 prostate, with SF-539 CNS, with OVCAR-3 ovarian, in the assay on SN12C renal, in the assay on UACC-62 melanoma and in the assay with SK-MEL-5 melanoma was above 10 µM throughout. Further, the TGI with NCI-H460 lung, with 786-0 renal, in the assay on TK-10 renal, in the assay with SNB-19 CNS and with RXF 393 renal was above 10 µM throughout.
